Measurements published in patent US10301263B2, “Anticonvulsant compound” (Royal Holloway and Bedford New College, priority 2014, dated 2019).

How the values were obtained:
[1] = system: histone deacetylase (HDAC); assay: HDAC activity assay (fluorescent kit, human nuclear enzyme extracts from HeLa cells); format: biochemical
Protocol: FIG. 4b is a graph showing quantification of a histone deacetylase (HDAC) inhibition assay employing human nuclear enzyme extracts (from HeLa cells) as the source of HDAC activity shown as fitted dose-response curves for 4-BCCA;
Histone deacetylase activity was analyzed by using an in vitro commercial assay kit, the HDAC fluorescent activity assay/drug discovery kit HDAC activity (Biomol, Plymouth Meeting, Pa.). The assay was conducted at room temperature according to the manufacturer's protocol, using Trichostatin A (a HDAC inhibitor; at 1 μM concentration) as a positive control. Data were derived from at least triplicate experiments with each experiment comprising at least duplicate measurements (n=6) normalized to controls (without VPA or fatty acids).

corneal kindled CF1 mice [2] = assay: Corneal kindled mouse model (CKM); format: in vivo; conditions: i.p.
Protocol: This model involves the use of corneal kindled mouse model for prediction of efficacy in human partial seizures (Rowley and White, 2010). Adult male CF1 mice (18-25 g) mice were stimulated through corneal electrodes (3 mA, 60 Hz, 3 seconds) after administration of 0.5% tetracaine hydrochloride to each eye. This procedure was carried out twice daily for an average of 12 days.
After 5-7-days stimulation-free period once the mice were fully kindled, the test compounds were administrated (100 mg/kg, i.p.). Mice in each group were then tested at various time points (0.25, 0.5, 1, 2, 4 hours) after drug dosing. Mice displaying a seizure score <3 are considered protected.

[3] = system: 6 Hz corneal stimulation seizures in CF1 mice; assay: 6 Hz psychomotor seizure test; format: in vivo; conditions: Mus musculus, ip, 32 mA for 3 s
Protocol: Adult male CF1 mice (18-25 g) were pretreated intraperitoneally (i.p.) with each compound at 100-150 mg/kg. After pretreatment, each mouse was given a drop of 0.5% tetracaine hydrochloride to each eye, following by low-frequency (6 Hz) stimulation (32 mA) for 3 seconds delivered through corneal electrodes. Animals were manually restrained and released immediately following the stimulation and observed for the presence or absence of seizure activity at five time points (1/4, 1/2, 1, 2, and 4 hours). Typically, the 6 Hz stimulation results in a seizure characterized by a minimal clonic phase that is followed by stereotyped, automatistic behaviors, including twitching of the vibrissae, and Straub-tail. Animals not displaying such behaviors were considered protected.
The inventors first employed a low frequency (6 Hz), long duration (3 s) corneal stimulation model because numerous second generation anti-epileptic drugs show poor seizure control in this assay (and so such a model may provide evidence of efficacy in drug resistant epilepsy). In this model, compounds are pre-administered to mice via i.p. injection and mice are challenged with sufficient current to elicit a psychomotor response (32 mA for 3 s) (Toman et al., 1952). The model causes forelimb clonus and then automatistic behavior characteristic of limbic epilepsy in humans. […]

MES-induced seizures = assay: Maximal electroshock test (MES); format: in vivo, mice; conditions: Mus musculus, ip
Protocol: The MES is a model for generalized tonic-clonic seizures which provides an indication of a compound's ability to prevent seizure spread when all neuronal circuits in the brain are maximally active. Animals are pretreated with compounds (100-125 mg/kg) by i.p. injection. Seizure activity was induced by delivery of 60 Hz of alternating current (50 mA in mice, 150 in rats) for 0.2 s through corneal electrodes which had been primed with an electrolyte solution containing an anesthetic agent (0.5% tetracaine HCl). An animal is considered “protected” from MES-induced seizures upon abolition of the hind limb tonic extensor component of the seizure (Swinyard et al., 1995; White et al., 1995; White et al., 2007).

[4] = system: Metrazol-induced clonic seizures; assay: Subcutaneous Metrazol seizure threshold test (scMET); format: in vivo, mice; conditions: i.p.
Protocol: Subcutaneous injection of Metrazol produces clonic seizures in animals. […] Animals were pretreated with each compound (100 mg/kg) in a similar manner to the MES test. Seizure activity was induced by administration of Metrazol (CD97: 85 mg/kg mice; 70 mg/kg rats) into skin in the midline of the neck.

AMPA receptors = assay: AMPA receptor mediated current, AMPA receptors expressed in oocytes (FIG. 1); format: cell-based
Protocol: Xenopus laevis oocytes were purchased from the European Xenopus Resource Centre, University of Portsmouth.
The bath solutions were perfused at a rate of 10 ml/min.

[5] = system: rat entorhinal cortex-hippocampus slices; assay: PTZ-induced epileptiform activity in entorhinal cortex-hippocampus slices (CA1 field recording); format: cell-based
Protocol: The preparation of entorhinal cortex-hippocampus slices and electrophysiological recording in CA1 were described previously (Armand et al., 1998; Chang and Walker, 2011). In brief, male rats (50-150 g) were decapitated after killing by intraperitoneal injection with an overdose of pentobarbitone (500 mg/kg). The brain was removed and preserved in oxygenated ice-cold sucrose solution in mM: NaCl 87, KCl 2.5, MgCl2 7, CaCl2 0.5, NaH2PO4 1.25, NaHCO3 26.2 sucrose 75, glucose 3. Transverse slices (350 μm) were prepared with a vibratome (VIBRATOME® 1500, Intracel Ltd) and were then stored in an interface chamber containing artificial cerebrospinal fluid solution (aCSF) in mM: NaCl 119, KCl 2.5, MgSO4 1.3, CaCl2 2.5, NaH2PO4 1, NaHCO3 26.2 glucose 16.6. The slices were stored for over one hour. During the experiment, the slices were transferred from the interface chamber into a submerged recording chamber and continuously perfused with prewarmed (about 36° C.) oxygenated (95% O2, 5% CO2) aCSF. A field potential recording was made by placing a glass microelectrodes filled with aCSF solution in stratum radiatum of CA1. A bipolar stimulating electrode was positioned in the Schaffer collateral/commissural fiber pathway in stratum radiatum to confirm slice viability. […] Anticonvulsant effects were evaluated by measuring the frequency of the discharges every minute.

[6] = DSMV IV, 2000; cited from earlier work
[7] = system: Metrazol-induced clonic seizures; conditions: scMET; Rowley and White, 2010; cited from earlier work
corneal kindled CF1 mice [8] = conditions: corneal kindled mouse; cited from earlier work
[9] = system: rat entorhinal cortex-hippocampus slices; conditions: PTZ-induced seizure-like activity in rat hippocampal slices; Chang et al., 2013; cited from earlier work

| Structure (SMILES) | HDAC inhibition ([1]; FIG. 4B dose-response) | HDAC inhibitory effect ([1]; upto 10 mM, HDAC extract derived from a human cell line) | EC50 value (corneal kindled CF1 mice [2]) | ED50 [3] | ED50 (MES-induced seizures) | EC50 value [4] | potency of AMPA receptors inhibition (as determined by IC50) relative to decanoic acid (DA) and 4-ethyloctanoic acid (4-EOA) (AMPA receptors) | epileptiform activity (frequency of PTZ-induced burst discharges) ([5]; PTZ 2 mM, K+ 6 mM, 20-40 minute treatment, n=5, 1 mM) | block in seizure activity ([5]; PTZ-induced seizure-like activity in rat hippocampal slices) | concentrations found in plasma [6] | IC50 ([1]; HDAC extract derived from a human cell line, read-out: IC50 against HDAC) | equivalent effect (to EC50) dose [7] | equivalent activity (to EC50) dose (corneal kindled CF1 mice [8]) | reduction in seizure activity [9] |
| --- | --- | --- | --- | --- | --- | --- | --- | --- | --- | --- | --- | --- | --- | --- |
| CCCC[C@H]1CC[C@H](C(=O)O)CC1 [Compound 4-BCCA, trans-4-butylcyclohexane carboxylic acid] | no HDAC inhibition | does not cause significant inhibitory effect | 44 mg/kg | 81 mg/kg | 100 mg/kg | ~150 mg/kg | comparable potency | 1.7±1.5 % of baseline | 100% | – | – | – | – | – |
| CCCC(CCC)C(=O)O [valproic acid, 2-propylpentanoic acid] | – | – | – | – | – | – | – | – | – | 400 to 700 µM | 2300 µM | 191 mg/kg | 174 mg/kg | 23% |
